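1) Cells in 96-well plates. 2) Compound, 48 h, 5 concentrations. 3) Linear interpolation between surrounding doses. 4) Unreached endpoint = highest concentration. Here, GI50 denotes the concentration required for 50% inhibition of growth.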 Active and inactive are the calls of the source. Cut-off read from the data, not from the text of the source: active = GI50 up to about 1.1 µM and inactive = higher.
Tests used:
Assay in all cases: NCI tumour cell line growth inhibition, 48 h
[1] = test system: SF-539
[2] = test system: SW-620
[3] = test system: HOP-62
[4] = test system: OVCAR-4
[5] = test system: HT-29
[6] = test system: SK-MEL-28
[7] = test system: BT-549
[8] = test system: K562
[9] = test system: SF-268
[10] = test system: KM12
[11] = test system: U-251
[12] = test system: MDA-MB-231
[13] = test system: TK-10
[14] = test system: MDA-MB-435
[15] = test system: EKVX
[16] = test system: Hs-578T
[17] = test system: SN12C
[18] = test system: UACC-257

For `CC(=O)NCCSC(=O)c1ccccc1`, the GI50 [1] was 0.387 µM (active), the GI50 [2] was 0.0295 µM (active) and the GI50 [3] was 0.148 µM (active). The GI50 [4] was 1.38 µM (inactive), the GI50 [5] was 0.167 µM (active) and the GI50 [6] was 0.268 µM (active). The GI50 [7] was 0.946 µM (active), the GI50 [8] was 0.285 µM (active) and the GI50 [9] was 0.0977 µM (active). The GI50 [10] was 0.449 µM (active), the GI50 [11] was 0.166 µM (active) and the GI50 [12] was 1.98 µM (inactive). The GI50 [13] was 0.126 µM (active), the GI50 [14] was 0.18 µM (active) and the GI50 [15] was 2.77 µM (inactive). For the same compound, the GI50 [16] was 0.479 µM (active), the GI50 [17] was 0.0853 µM (active) and the GI50 [18] was 0.19 µM (active).
With `Nc1nc(N)c2nc(CNc3ccc(C(=O)NC(CCNC(=O)c4ccccc4C(=O)O)C(=O)O)cc3)cnc2n1` (centres undefined) the GI50 [1] was < 0.0256 µM (active), the GI50 [2] was 0.01 µM (active) and the GI50 [3] was < 0.0205 µM (active). The GI50 [4] was > 100 µM (inactive), the GI50 [5] was 0.01 µM (active) and the GI50 [6] was 4.14 µM (inactive). For the same compound, the GI50 [7] was > 100 µM (inactive), the GI50 [8] was 0.01 µM (active) and the GI50 [9] was 0.0101 µM (active). The GI50 [10] was 0.0168 µM (active), the GI50 [11] was < 0.0254 µM (active) and the GI50 [12] was > 100 µM (inactive). For the same compound, the GI50 [13] was > 100 µM (inactive), the GI50 [14] was 0.01 µM (active) and the GI50 [15] was > 100 µM (inactive). The GI50 [16] was > 100 µM (inactive) and the GI50 [17] was 0.01 µM (active).
`O=C(Nc1ccc(-c2cn3ccccc3n2)cc1)c1cc(Br)ccc1O` was tested, and the GI50 [1] was > 100 µM (inactive), the GI50 [2] was > 100 µM (inactive) and the GI50 [3] was > 100 µM (inactive). The GI50 [4] was > 100 µM (inactive), the GI50 [5] was > 100 µM (inactive) and the GI50 [6] was > 100 µM (inactive). For the same compound, the GI50 [7] was > 100 µM (inactive), the GI50 [8] was > 100 µM (inactive) and the GI50 [9] was > 100 µM (inactive). The GI50 [10] was > 100 µM (inactive), the GI50 [11] was > 100 µM (inactive) and the GI50 [12] was > 100 µM (inactive). For the same compound, the GI50 [13] was > 100 µM (inactive), the GI50 [14] was > 100 µM (inactive) and the GI50 [15] was > 100 µM (inactive). The GI50 [16] was > 100 µM (inactive), the GI50 [17] was > 100 µM (inactive) and the GI50 [18] was > 100 µM (inactive).
In the case of `O=C1c2cc3ccccc3cc2C2(c3ccc(Cl)cc3)N[C@H]3CCCC[C@@H]3N12` (some centres undefined), the GI50 [1] is reported as 10.1 µM (inactive), the GI50 [2] is reported as 17.4 µM (inactive) and the GI50 [3] is reported as 6.79 µM (inactive). The GI50 [4] was 6.34 µM (inactive), the GI50 [5] was 14.4 µM (inactive) and the GI50 [6] was 12.3 µM (inactive). For the same compound, the GI50 [7] was 20 µM (inactive), the GI50 [8] was 26.9 µM (inactive) and the GI50 [9] was 16.5 µM (inactive). The GI50 [10] was 16.9 µM (inactive), the GI50 [11] was 14.2 µM (inactive) and the GI50 [12] was 13.3 µM (inactive). The GI50 [13] was 11.7 µM (inactive), the GI50 [14] was 21.9 µM (inactive) and the GI50 [15] was 10.9 µM (inactive). For the same compound, the GI50 [16] was 11.7 µM (inactive), the GI50 [17] was 16.6 µM (inactive) and the GI50 [18] was 19.4 µM (inactive).
For `COc1ccc(NC=O)c(C(=O)CCNC(C)=O)c1`, the GI50 [1] was > 100 µM (inactive), the GI50 [2] was > 100 µM (inactive) and the GI50 [4] was > 100 µM (inactive). For the same compound, the GI50 [5] was > 100 µM (inactive), the GI50 [7] was > 100 µM (inactive) and the GI50 [8] was > 100 µM (inactive). For the same compound, the GI50 [9] was > 100 µM (inactive), the GI50 [10] was > 100 µM (inactive) and the GI50 [11] was > 100 µM (inactive). For the same compound, the GI50 [12] was > 100 µM (inactive), the GI50 [13] was > 100 µM (inactive) and the GI50 [14] was > 100 µM (inactive). For the same compound, the GI50 [15] was > 100 µM (inactive), the GI50 [16] was > 100 µM (inactive) and the GI50 [17] was > 100 µM (inactive). For the same compound, the GI50 [18] was > 100 µM (inactive).
For `COc1ccc(-c2nc(-c3ccc(OC)cc3)n(-c3ccccc3)n2)cc1`, the GI50 [1] was > 100 µM (inactive), the GI50 [2] was > 100 µM (inactive) and the GI50 [3] was > 100 µM (inactive). For the same compound, the GI50 [4] was 31.7 µM (inactive), the GI50 [5] was 19.9 µM (inactive) and the GI50 [6] was > 100 µM (inactive). For the same compound, the GI50 [7] was 38.5 µM (inactive), the GI50 [9] was > 100 µM (inactive) and the GI50 [10] was 40.2 µM (inactive). The GI50 [11] was 78.9 µM (inactive), the GI50 [12] was 50.2 µM (inactive) and the GI50 [13] was > 100 µM (inactive). For the same compound, the GI50 [14] was > 100 µM (inactive), the GI50 [15] was 56.4 µM (inactive) and the GI50 [16] was > 100 µM (inactive). For the same compound, the GI50 [17] was > 100 µM (inactive) and the GI50 [18] was > 100 µM (inactive).
